Here are results for three molecules from patent publication US20170363632A1, “Biomarker Kit for Metastatic Breast Cancer Prognosis and Uses Thereof” (University of Maryland, Baltimore, priority 2016, published 2017).

Data set [1] concerns PI3K pathway (phosphorylation levels of AKT) in obscurin-knockdown MCF10A cells. Kind of data set: Western blot of AKT phosphorylation after PI3K inhibitor treatment. Format: cell-based. On the procedure: (§1) Cell lysates were prepared in radioimmuno-precipitation assay (RIPA) buffer supplemented with cocktails of protease inhibitors (Roche, Mannheim, Germany), and phosphatase inhibitors ([…], 100 mM Sodium Flouride, 115 mM Sodium Molybdate, 100 mM Sodium Orthovanadate, 400 mM Sodium Tartrate Dihydrate, 100 mM β-Glycerophosphate, 100 mM Sodium Pyrophosphate, and 10 mM EGTA). Protein lysates were electrophoresed on SDS-NuPAGE gel (Thermo Fisher Scientific, Waltham, Mass.), transferred to nitrocellulose membranes, and probed with primary antibodies as specified in the text, and the appropriate […] secondary antibodies (Jackson ImmunoResearch Laboratories). Immunoreactive bands were visualized using AMERSHAM ECL prime western blotting detection reagent (GE Healthcare Life Sciences), and densitometry was performed with Image J software. Treatment of cells followed by lysate preparation and immunoblotting analysis was repeated at least three independent times.
(§2) To verify the effectiveness of the two inhibitors in suppressing the PI3K pathway, whether the phosphorylation levels of AKT were reduced following treatment was examined. […] Whether inhibition of PI3K reverses epithelial to mesenchymal transition in obscurin-knockdown cells was evaluated.

Data set [2] has as its system obscurin-knockdown MCF10A cells. Kind of data set: Western blot of epithelial and mesenchymal (EMT) proteins after PI3K inhibitor treatment. It counts as cell-based. How it is done: as §1, §2
Data set [3] shares this test system. Kind of data set: Mammosphere culture in ultra-low attachment conditions. Format: cell-based. Details: mammosphere formation: dose or concentration left out as unconfirmed. Particulars: for reduction in mammosphere formation: spheres ≧100 μm. On the procedure:
Single MCF10A cells stably transduced with obscurin shRNA were plated in ultralow attachment plates (Corning, Lowell, Mass., USA) at a density of 10,000 cells/mL in 2 mL serum-free growth media (DMEM/F12 with GlutaMAX™), supplemented with insulin (10 μg/mL), hydrocortisone (0.5 μg/mL), cholera toxin (100 ng/mL), epidermal growth factor (20 ng/mL), 1% penicillin-streptomycin and puromycin (1.5 μg/mL). Twenty-four hours following initial plating, cell cultures were supplemented with 2 mL serum-free growth media that contained the indicated concentration of LY294002, BKM120, or DMSO vehicle control every day for 10 days at which time point spheres were measured and those ≧100 μm were counted as tumor spheres.

For data set [4], the system named is adherent MCF10A obscurin-knockdown or scramble control cells. Kind of data set: Cell viability, AlamarBlue assay. It counts as cell-based. Particulars: different concentrations of BKM120, 24 h. How it is done: (§3) Cell viability of MCF10A obscurin-knockdown and scramble control cells treated with the specified concentrations of LY294002 and BKM120 inhibitors or vehicle DMSO for 24 h was measured using the AlamarBlue assay (Life Technologies) (9). In brief, the AlamarBlue reagent was added to the cell culture at 10% v/v and incubated for 16 h at 37° C., 5% CO2. The percentage (%) of AlamarBlue reduction was determined by measuring absorbance at 550 and 620 nm. Data are presented as the percentage of AlamarBlue reduced per number of cells.

Data set [5] deals with obscurin-knockdown MCF10A cells. Kind of data set: Wound healing assay. Format: cell-based. Particulars: DMSO vehicle ≧20%. How it is done: Wound healing was measured by growing confluent MCF10A cell monolayers stably expressing obscurin shRNA in six-well tissue culture dishes (Corning). A scrape was made through the monolayer with a sterile plastic pipette tip and fresh media containing LY294002, BKM120, or DMSO vehicle control was added at the indicated concentrations. Images were taken with an inverted microscope (10× objective) at time 0 h and after a 6 h incubation period at 37° C., 5% CO2. Migration was expressed as the average of the difference between the measurement at time zero and 6 h obtained from 3 independent experiments.

The test system is the same in data set [6]. Kind of data set: Microchannel single cell migration. On the set-up: dose or concentration left out as unconfirmed. It counts as cell-based. How it is done: The microchannel device was fabricated by standard lithography and coated with 20 μg/mL collagen type I (BD Biosciences, San Jose, Calif.) (12-16). Cells were trypsinized, resuspended in serum-containing media to neutralize the trypsin, and subsequently washed in serum-free media. A suspension of 5×10^4 cells was added to the inlet port, and cells were transported along the seeding channel by pressure-driven flow. Within 5 min, the cell suspension was removed and replaced with 100 μL of serum-free media containing the specified concentrations of LY294002, BKM120, or DMSO vehicle control. Serum-containing media with the indicated concentrations of LY294002, BKM120, or DMSO was added to the top-most inlet port, thus forming a chemoattractant gradient. Chambers were placed in an enclosed, humidified microscope stage at 5% CO2 and 37° C. (TIZ, Tokai Hit Co., Japan or Okolab, Italy). […] Instantaneous cell velocity was calculated by dividing each interval displacement by the time interval (20 min), and the mean velocity for a given cell was computed by averaging instantaneous velocities for all time intervals. Chemotactic index was calculated by dividing the end-to-end displacement by the total path length of the cell. […]

The test system is the same in data set [7]. Kind of data set: Matrigel invasion assay. It counts as cell-based. Particulars: dose-dependent, 16 h. How it is done: Invasion was measured by adding 250,000 cells suspended in 0.5 mL growth media containing the specified concentration of LY294002, BKM120, or DMSO vehicle control to the upper chamber of a Matrigel-coated invasion chamber (BD Biosciences, San Jose, Calif.). The lower chamber contained growth media supplemented with 10% FBS. The inserts were incubated at 37° C., 5% CO2 for 16 h. At the end of the 16 h incubation period, the cells that had invaded in the lower chamber were fixed and stained with 0.5% crystal violet in 20% methanol. The number of invaded cells was quantified by counting at least 6 random fields from 3 independent experiments under an inverted light microscope (Olympus IX51) with a 10× objective.

Data set [8] has as its system MCF10A obscurin-knockdown cells. Kind of data set: Bright-field microscopy of cell morphology and cell-cell junctions. Format: cell-based. Particulars: 1 mM BKM120. The source says:
Taken together, these findings indicate that blockade of the PI3K pathway in obscurin-depleted breast epithelial cells via pharmacological treatment or molecular means effectively reverses epithelial to mesenchymal transition.

The nature of data set [9]: Cell viability, AlamarBlue assay. Particulars: human, adherent MCF10A obscurin-knockdown or scramble control cells; 25 µM LY294002, 24 h; read-out: decrease in cell viability (reduction of AlamarBlue). It counts as cell-based. How it is done:
as §3

The next data set deals with T1, control GST-protein (UniProt P08515 1-218 = GST).
T1 construct: Negative control in the GST pull-down; also called GST-alone
T1 sequence (P08515 whole entry): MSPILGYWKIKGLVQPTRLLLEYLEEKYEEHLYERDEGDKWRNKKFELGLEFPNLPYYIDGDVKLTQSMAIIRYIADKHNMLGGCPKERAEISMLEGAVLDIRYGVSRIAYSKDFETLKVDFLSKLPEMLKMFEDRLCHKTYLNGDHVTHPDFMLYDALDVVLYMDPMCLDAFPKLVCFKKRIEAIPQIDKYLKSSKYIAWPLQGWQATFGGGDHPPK
Kind of data set: GST pull-down on glutathione-Sepharose beads, immunoblot with His-tag antibody. How it is done: GST-pull down assays were performed (19, 20). Equivalent amounts of control GST-protein and GST-obscurin-PH were bound to glutathione-Sepharose beads and incubated with 3 mg/mL of His-tagged PI3K/p85-SH3 protein overnight at 4° C. in pull-down buffer (50 mM Tris, pH 7.5, 120 mM NaCl, 10 mM NaN3, 2 mM DTT, and 0.5% Tween). At the end of the incubation period, beads were washed five times with wash buffer (PBS with 10 mM NaN3 and 0.1% Tween), and bound proteins were eluted with 2× LDS buffer (Invitrogen), followed by boiling at 95° C. for 10 min and separation on a 4-12% bis-Tris gel. A His6-antibody (sc-803, Santa Cruz Biotechnology) was used for detection of immunoreactive bands with the Tropix chemiluminescence detection kit (Applied Biosystems).

A further data set concerns the target T2, GST-obscurin-PH (human, UniProt Q5VST9 5895-6004).
T2 construct: domain: Pleckstrin Homology (PH) domain; Expressed in bacteria, about 37 kDa; also called GST-obscurin-PH domain; recombinant obscurin-PH domain fused to GST; not shown: glutathione-S-transferase (GST) tag encoded by the PGEX vector (GE Healthcare)
T2 sequence (looked up): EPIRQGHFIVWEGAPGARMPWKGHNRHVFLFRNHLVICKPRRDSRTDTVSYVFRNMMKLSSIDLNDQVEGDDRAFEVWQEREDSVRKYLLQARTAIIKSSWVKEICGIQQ
Kind of data set: SPR, Biacore 3000; GST-obscurin-PH immobilized on CM5 chip, HIS-PI3K/p85-SH3 as analyte at 8-250 nM; 1:1 Langmuir model. How it is done:
Surface plasmon resonance was performed using a BiaCore 3000 instrument as described (6, 19, 21). In particular, the GST-obscurin-PH domain was used as ligand and was immobilized on a carboxymethyl-dextran sensor (CM5) chip, while the HIS-PI3K-p85/SH3 domain was used as analyte at varying concentrations ranging from 8-250 nM. The flow rate for analyte injection was 20 μl/min. For each analyte concentration, association was measured for 180 sec and dissociation was measured over another 180 sec. Data were evaluated with the 1:1 Langmuir model and the Heterogeneous Ligand model (BIAevaluation Software 3.1, Biacore). The association (kₐ, M⁻¹ s⁻¹) and dissociation (kd, s⁻¹) rate constants as well as the association (KA, M⁻¹) and dissociation (KD, M) equilibrium constants were determined.

“Also recorded” adds a separate entry of the source.

As to `Nc1cc(C(F)(F)F)c(-c2cc(N3CCOCC3)nc(N3CCOCC3)n2)cn1` [BKM120], in data set [1] (1 μM BKM120), the “phosphorylation level of AKT at serine-473 compared to vehicle DMSO” value came out at 0.3 fold and the “phosphorylation level of AKT at threonine-308 compared to vehicle DMSO” value is given as 0.1 fold. Moreover, in [2] (1 μM BKM120), the “expression level of E-cadherin (increase)” value worked out at 2.1 fold, the “expression level of N-cadherin (decrease)” value was determined as 0.5 fold, the “expression level of Slug (decrease)” value worked out at 0.3 fold and the “expression level of Twist (decrease)” value is recorded as 0.5 fold. Also, in data set [2] (1 μM BKM120), the “expression level of β-catenin (increase)” value is 5 fold. Moreover, the “reduction in mammosphere formation” value in data set [3] (0.1 mM BMK120, 10 days) was 18%. For the same molecule, the “reduction in mammosphere formation” value in data set [3] (0.5 mM BMK120, 10 days) is given as 89%. Further, in data set [3] (BKM120, 10 days), the mammosphere formation entry is “completely eliminated mammosphere formation”. The “cell viability (reduction of AlamarBlue) versus vehicle DMSO” value in data set [4] is “No significant changes; also recorded: did not affect their survival and growth”. In addition, the wound healing in data set [5] (1 mM BKM120, after 6 h) is about 6%. The “migration speed compared to DMSO treated cells” value in data set [6] (microchannels 6, 10, 20 and 50 mm wide) is recorded as “significantly reduced migration”. Also, the “chemotactic index (CI) relative to vehicle control” value in data set [6] (statistically significant in narrow channels (6 mm)) is “lower chemotactic index”. Further, in [7] (BKM120 0-1 mM), the “reduction in cell invasiveness relative to DMSO” value was 15-60%. Moreover, the “cell morphology and cell-cell junction formation” value in data set [8] was “(re)acquired an epithelial appearance and were able to form cell-cell junctions”.

As for `O=c1cc(N2CCOCC2)oc2c(-c3ccccc3)cccc12` [LY294002], in data set [1] (25 μM LY294002), the “phosphorylation level of AKT at serine-473 compared to vehicle DMSO” value amounted to 0.4 fold and the “phosphorylation level of AKT at threonine-308 compared to vehicle DMSO” value worked out at 0.4 fold. Also, in data set [2] (25 μM LY294002), the “expression level of E-cadherin (increase)” value is 1.8 fold, the “expression level of N-cadherin (decrease)” value was determined as 0.3 fold, the “expression level of Slug (decrease)” value is recorded as 0.6 fold and the “expression level of Twist (decrease)” value worked out at 0.4 fold. For the same molecule, the “expression level of β-catenin (increase)” value in data set [2] (25 μM LY294002) is 1.3 fold. The “reduction in mammosphere formation” value in data set [3] (5 mM LY294002, 10 days) is reported as 36%. Besides, the “reduction in mammosphere formation” value in data set [3] (10 mM LY294002, 10 days) was determined as 58%. The cytotoxicity at 24 h, 25 µM in data set [9] is about 5%. Also, the wound healing in data set [5] (25 mM LY294002, after 6 h) is recorded as about 6%. For the same molecule, the “reduction in cell invasiveness relative to DMSO” value in data set [7] (LY294002 0-25 mM) is reported as 50-95%.

B1: HIS-PI3K/p85-SH3 (other, human, UniProt O00459 4-80, looked up)
chain: PEGFQYRALYPFRRERPEDLELLPGDVLVVSRAALQALGVAEGGERCPQSVGWMPGLNERTRQRGDFPGTYVEFLGP
notes: domain: Src Homology 3 (SH3) domain; Expressed in bacteria, about 10 kDa; also called His-tagged PI3K/p85-SH3 protein; HIS-PI3K-p85/SH3 domain; not shown: His tag and vector-encoded residues of pET-30a(+)
Consider B1, for which the binding result with control GST-protein was “no binding (tested: 3 mg/mL of His-tagged PI3K/p85-SH3)”. The molecule further gave a Kd in the data set with GST-obscurin-PH of about 50 nM.
